The NIST ThermoML archive (doi:10.1016/j.tca.2015.01.012)
Where “and” joins values, the source holds several entries; their conditions need not be identical. Identical values can stand only once. Numbers after ± are expanded uncertainties.

Test: molar heat capacity at constant pressure
Conditions: 101.33 kPa, Crystal, Small (less than 1 g) adiabatic calorimetry

O=C(O)c1cccnc1 [3-carboxylpyridine]
Conditions | molar heat capacity at constant pressure
1 K | 0.0015 J/K/mol
2 K | 0.0121 ± 0.016 J/K/mol
3 K | 0.0409 ± 0.016 J/K/mol
4 K | 0.0968 ± 0.017 J/K/mol
5 K | 0.1891 ± 0.018 J/K/mol
5.3 K | 0.2521 ± 0.02 J/K/mol
5.53 K | 0.2833 ± 0.021 J/K/mol
5.71 K | 0.3119 ± 0.022 J/K/mol
5.9 K | 0.3323 ± 0.023 J/K/mol
6 K | 0.3359 ± 0.023 J/K/mol
6.07 K | 0.3625 ± 0.024 J/K/mol
6.23 K | 0.3927 ± 0.025 J/K/mol
6.39 K | 0.3921 ± 0.025 J/K/mol
6.55 K | 0.4232 ± 0.026 J/K/mol
6.7 K | 0.4579 ± 0.027 J/K/mol
6.86 K | 0.5025 ± 0.029 J/K/mol
7 K | 0.5397 ± 0.03 J/K/mol
7.03 K | 0.5557 ± 0.031 J/K/mol
7.19 K | 0.5983 ± 0.032 J/K/mol
7.36 K | 0.6211 ± 0.033 J/K/mol
7.52 K | 0.6706 ± 0.035 J/K/mol
7.69 K | 0.6993 ± 0.036 J/K/mol
7.84 K | 0.7188 ± 0.037 J/K/mol
8 K | 0.7924 ± 0.04 J/K/mol and 0.8151 ± 0.041 J/K/mol
8.17 K | 0.8389 ± 0.042 J/K/mol
8.34 K | 0.8744 ± 0.043 J/K/mol
8.51 K | 0.9394 ± 0.046 J/K/mol
8.68 K | 1.001 ± 0.048 J/K/mol
8.86 K | 1.063 ± 0.051 J/K/mol
9 K | 1.099 ± 0.052 J/K/mol
9.03 K | 1.093 ± 0.052 J/K/mol
9.21 K | 1.135 ± 0.053 J/K/mol
9.38 K | 1.246 ± 0.058 J/K/mol
9.56 K | 1.315 ± 0.061 J/K/mol
9.73 K | 1.428 ± 0.065 J/K/mol
9.92 K | 1.479 ± 0.067 J/K/mol
10 K | 1.48 ± 0.067 J/K/mol
10.17 K | 1.542 ± 0.07 J/K/mol
10.5 K | 1.674 ± 0.075 J/K/mol
10.82 K | 1.86 ± 0.083 J/K/mol
11.15 K | 2.012 ± 0.089 J/K/mol
11.48 K | 2.15 ± 0.094 J/K/mol
11.83 K | 2.356 ± 0.1 J/K/mol
12.19 K | 2.553 ± 0.11 J/K/mol
12.55 K | 2.742 ± 0.12 J/K/mol
12.92 K | 2.969 ± 0.13 J/K/mol
13.29 K | 3.19 ± 0.14 J/K/mol
13.67 K | 3.425 ± 0.15 J/K/mol
14.06 K | 3.628 ± 0.15 J/K/mol
14.45 K | 3.87 ± 0.16 J/K/mol
14.84 K | 4.121 ± 0.17 J/K/mol
15 K | 4.221 ± 0.18 J/K/mol
15.23 K | 4.365 ± 0.18 J/K/mol
15.63 K | 4.629 ± 0.2 J/K/mol
16.04 K | 4.894 ± 0.21 J/K/mol
16.44 K | 5.19 ± 0.22 J/K/mol
16.85 K | 5.494 ± 0.23 J/K/mol
17.27 K | 5.794 ± 0.24 J/K/mol
17.67 K | 6.094 ± 0.25 J/K/mol
18.09 K | 6.421 ± 0.27 J/K/mol
18.52 K | 6.77 ± 0.28 J/K/mol
18.95 K | 7.125 ± 0.3 J/K/mol
19.38 K | 7.466 ± 0.31 J/K/mol
19.82 K | 7.809 ± 0.32 J/K/mol
20 K | 7.998 ± 0.33 J/K/mol
20.68 K | 8.601 ± 0.12 J/K/mol
22 K | 9.701 ± 0.13 J/K/mol
23.36 K | 10.88 ± 0.15 J/K/mol
24.74 K | 12.09 ± 0.16 J/K/mol
25 K | 12.34 ± 0.16 J/K/mol
26.14 K | 13.4 ± 0.17 J/K/mol
27.57 K | 14.79 ± 0.18 J/K/mol
29.02 K | 16.15 ± 0.2 J/K/mol
30 K | 17.11 ± 0.22 J/K/mol
30.49 K | 17.6 ± 0.22 J/K/mol
31.97 K | 18.99 ± 0.24 J/K/mol
33.48 K | 20.37 ± 0.25 J/K/mol
34.99 K | 21.77 ± 0.26 J/K/mol
35 K | 21.76 ± 0.26 J/K/mol
36.53 K | 23.11 ± 0.28 J/K/mol
38.07 K | 24.44 ± 0.29 J/K/mol
39.63 K | 25.75 ± 0.3 J/K/mol
40 K | 26.08 ± 0.31 J/K/mol
41.2 K | 27.05 ± 0.2 J/K/mol
42.78 K | 28.38 ± 0.21 J/K/mol
44.36 K | 29.6 ± 0.21 J/K/mol
45 K | 30.14 ± 0.22 J/K/mol
45.95 K | 30.92 ± 0.22 J/K/mol
47.56 K | 32.14 ± 0.23 J/K/mol
49.17 K | 33.43 ± 0.23 J/K/mol
50 K | 33.99 ± 0.23 J/K/mol
50.79 K | 34.59 ± 0.24 J/K/mol
52.41 K | 35.8 ± 0.24 J/K/mol
54.04 K | 36.96 ± 0.25 J/K/mol
55.68 K | 38.11 ± 0.26 J/K/mol
57.33 K | 39.19 ± 0.26 J/K/mol
58.97 K | 40.29 ± 0.27 J/K/mol
60 K | 40.99 ± 0.27 J/K/mol
60.63 K | 41.38 ± 0.27 J/K/mol
62.28 K | 42.42 ± 0.28 J/K/mol
63.94 K | 43.46 ± 0.28 J/K/mol
65.61 K | 44.41 ± 0.29 J/K/mol
67.28 K | 45.36 ± 0.29 J/K/mol
68.95 K | 46.38 ± 0.3 J/K/mol
70 K | 47 ± 0.3 J/K/mol
70.62 K | 47.37 ± 0.3 J/K/mol
72.71 K | 48.52 ± 0.31 J/K/mol
75.22 K | 49.8 ± 0.32 J/K/mol
77.73 K | 51.14 ± 0.32 J/K/mol
80 K | 52.23 ± 0.33 J/K/mol
80.25 K | 52.35 ± 0.33 J/K/mol
80.98 K | 52.79 ± 0.33 J/K/mol
82.78 K | 53.53 ± 0.34 J/K/mol
84.21 K | 54.31 ± 0.34 J/K/mol
85.31 K | 54.74 ± 0.34 J/K/mol
86.73 K | 55.5 ± 0.35 J/K/mol
87.85 K | 55.91 ± 0.35 J/K/mol
89.25 K | 56.68 ± 0.35 J/K/mol
90 K | 56.95 ± 0.38 J/K/mol
90.39 K | 57.08 ± 0.38 J/K/mol
91.78 K | 57.81 ± 0.38 J/K/mol
94.31 K | 59 ± 0.39 J/K/mol
96.84 K | 60.11 ± 0.39 J/K/mol
99.38 K | 61.16 ± 0.4 J/K/mol
100 K | 61.37 ± 0.4 J/K/mol
101.92 K | 62.18 ± 0.4 J/K/mol
104.47 K | 63.23 ± 0.41 J/K/mol
107.02 K | 64.34 ± 0.41 J/K/mol
109.57 K | 65.35 ± 0.42 J/K/mol
110 K | 65.59 ± 0.42 J/K/mol
112.12 K | 66.36 ± 0.42 J/K/mol
114.68 K | 67.47 ± 0.43 J/K/mol
117.24 K | 68.52 ± 0.43 J/K/mol
119.81 K | 69.55 ± 0.44 J/K/mol
120 K | 69.67 ± 0.44 J/K/mol
122.39 K | 70.55 ± 0.44 J/K/mol
124.96 K | 71.54 ± 0.45 J/K/mol
127.53 K | 72.56 ± 0.45 J/K/mol
130 K | 73.64 ± 0.46 J/K/mol
130.1 K | 73.62 ± 0.46 J/K/mol
132.68 K | 74.7 ± 0.46 J/K/mol
135.26 K | 75.71 ± 0.47 J/K/mol
137.83 K | 76.72 ± 0.47 J/K/mol
140 K | 77.53 ± 0.48 J/K/mol
140.41 K | 77.7 ± 0.48 J/K/mol
142.99 K | 78.8 ± 0.48 J/K/mol
145.58 K | 79.79 ± 0.49 J/K/mol
148.16 K | 80.74 ± 0.49 J/K/mol
150 K | 81.39 ± 0.49 J/K/mol
150.75 K | 81.72 ± 0.5 J/K/mol
153.33 K | 82.67 ± 0.5 J/K/mol
155.92 K | 83.7 ± 0.51 J/K/mol
158.51 K | 84.71 ± 0.51 J/K/mol
160 K | 85.26 ± 0.51 J/K/mol
161.1 K | 85.73 ± 0.51 J/K/mol
163.71 K | 86.79 ± 0.52 J/K/mol
166.31 K | 87.79 ± 0.52 J/K/mol
168.9 K | 88.81 ± 0.53 J/K/mol
170 K | 89.19 ± 0.53 J/K/mol
171.49 K | 89.87 ± 0.53 J/K/mol
174.09 K | 90.88 ± 0.54 J/K/mol
176.68 K | 91.97 ± 0.54 J/K/mol
179.28 K | 92.85 ± 0.55 J/K/mol
180 K | 93.23 ± 0.55 J/K/mol
181.87 K | 93.96 ± 0.55 J/K/mol
184.47 K | 95.03 ± 0.56 J/K/mol
187.07 K | 96.11 ± 0.56 J/K/mol
189.66 K | 97.14 ± 0.57 J/K/mol
190 K | 97.4 ± 0.57 J/K/mol
192.26 K | 98.33 ± 0.58 J/K/mol
194.86 K | 99.43 ± 0.58 J/K/mol
197.45 K | 100.6 ± 0.6 J/K/mol
200 K | 101.7 ± 0.6 J/K/mol
200.05 K | 101.7 ± 0.6 J/K/mol
202.65 K | 102.8 ± 0.6 J/K/mol
205.28 K | 104.1 ± 0.6 J/K/mol
207.88 K | 105.2 ± 0.6 J/K/mol
210 K | 106.3 ± 0.6 J/K/mol
210.48 K | 106.4 ± 0.6 J/K/mol
213.09 K | 107.6 ± 0.6 J/K/mol
215.69 K | 109 ± 0.6 J/K/mol
218.3 K | 110 ± 0.6 J/K/mol
220 K | 110.9 ± 0.6 J/K/mol
220.91 K | 111.3 ± 0.6 J/K/mol
223.52 K | 112.6 ± 0.6 J/K/mol
226.13 K | 113.8 ± 0.7 J/K/mol
228.74 K | 115.2 ± 0.7 J/K/mol
230 K | 115.8 ± 0.7 J/K/mol
231.36 K | 116.7 ± 0.7 J/K/mol
233.98 K | 117.7 ± 0.7 J/K/mol
236.59 K | 119.1 ± 0.7 J/K/mol
239.21 K | 120.4 ± 0.7 J/K/mol
240 K | 120.8 ± 0.7 J/K/mol
241.83 K | 121.8 ± 0.7 J/K/mol
244.45 K | 123.1 ± 0.7 J/K/mol
247.11 K | 124.5 ± 0.7 J/K/mol
249.74 K | 125.8 ± 0.7 J/K/mol
250 K | 125.8 ± 0.7 J/K/mol
252.36 K | 127.1 ± 0.7 J/K/mol
254.98 K | 128.5 ± 0.7 J/K/mol
257.61 K | 129.8 ± 0.7 J/K/mol
260 K | 131 ± 0.7 J/K/mol
260.24 K | 131.1 ± 0.7 J/K/mol
262.86 K | 132.5 ± 0.7 J/K/mol
265.49 K | 134 ± 0.7 J/K/mol
268.12 K | 135.3 ± 0.8 J/K/mol
270 K | 136.3 ± 0.8 J/K/mol
270.75 K | 136.7 ± 0.8 J/K/mol
273.15 K | 137.9 ± 0.8 J/K/mol
273.38 K | 138.2 ± 0.8 J/K/mol
276.01 K | 139.3 ± 0.8 J/K/mol
278.63 K | 140.8 ± 0.8 J/K/mol
280 K | 141.6 ± 0.8 J/K/mol
281.26 K | 142.3 ± 0.8 J/K/mol
283.88 K | 143.5 ± 0.8 J/K/mol
286.5 K | 144.8 ± 0.8 J/K/mol
289.15 K | 146.5 ± 0.8 J/K/mol
290 K | 146.9 ± 0.8 J/K/mol
291.77 K | 147.8 ± 0.8 J/K/mol
294.38 K | 149.3 ± 0.8 J/K/mol
296.99 K | 150.7 ± 0.8 J/K/mol
298.15 K | 151.3 ± 0.8 J/K/mol
299.59 K | 152.1 ± 0.8 J/K/mol
300 K | 152.3 ± 0.8 J/K/mol
302.64 K | 153.7 ± 0.8 J/K/mol
306.07 K | 155.5 ± 0.9 J/K/mol
309.49 K | 157.1 ± 0.9 J/K/mol
310 K | 157.7 ± 0.9 J/K/mol
312.9 K | 159 ± 0.9 J/K/mol
316.3 K | 161.2 ± 0.9 J/K/mol
319.71 K | 162.9 ± 0.9 J/K/mol
320 K | 163.1 ± 0.9 J/K/mol
323.11 K | 164.8 ± 0.9 J/K/mol
326.5 K | 166.8 ± 0.9 J/K/mol
329.88 K | 168.6 ± 0.9 J/K/mol
330 K | 168.5 ± 0.9 J/K/mol
333.26 K | 170.6 ± 0.9 J/K/mol
336.64 K | 172.4 ± 0.9 J/K/mol
340 K | 174 ± 0.9 J/K/mol
343.36 K | 175.7 ± 1 J/K/mol
346 K | 177.3 ± 1 J/K/mol
346.71 K | 177.4 ± 1 J/K/mol
